Results taken from ChEMBL document CHEMBL6127062, “Targeted degradation of METTL3 against acute myeloid leukemia and gastric cancer” (Eur J Med Chem, 2024).
Activity calls are given as the source filed them. No cut-off for these calls is given here.

What was measured:
[1] = biological target: T1, von Hippel-Lindau disease tumor suppressor/N(6)-adenosine-methyltransferase catalytic subunit METTL3 (Homo sapiens, UniProt P40337+Q86U44); experiment: PROTAC activity at VHL/METTL3 (unknown origin) expressed in HeLa cells incubated for 4 hrs presence of MZ1 by flow cytometry analysis; assay type: cell-based
Target sequence in this assay (Q86U44 2-580 partner limits assumed): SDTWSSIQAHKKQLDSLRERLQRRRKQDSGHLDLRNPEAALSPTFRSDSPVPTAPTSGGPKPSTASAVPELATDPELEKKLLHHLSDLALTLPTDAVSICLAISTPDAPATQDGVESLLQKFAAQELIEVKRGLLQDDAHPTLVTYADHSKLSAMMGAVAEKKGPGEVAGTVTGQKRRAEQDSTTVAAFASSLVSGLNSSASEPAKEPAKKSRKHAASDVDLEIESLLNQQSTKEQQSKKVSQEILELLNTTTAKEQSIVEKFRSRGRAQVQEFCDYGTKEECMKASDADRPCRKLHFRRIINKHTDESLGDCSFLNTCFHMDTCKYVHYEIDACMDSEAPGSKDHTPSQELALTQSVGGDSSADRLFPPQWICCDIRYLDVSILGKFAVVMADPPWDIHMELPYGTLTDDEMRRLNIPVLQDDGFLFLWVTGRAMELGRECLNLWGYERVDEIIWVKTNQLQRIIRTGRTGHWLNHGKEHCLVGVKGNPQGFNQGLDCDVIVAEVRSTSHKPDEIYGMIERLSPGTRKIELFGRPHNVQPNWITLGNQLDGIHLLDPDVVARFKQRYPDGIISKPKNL
Target sequence in this assay (P40337 whole entry): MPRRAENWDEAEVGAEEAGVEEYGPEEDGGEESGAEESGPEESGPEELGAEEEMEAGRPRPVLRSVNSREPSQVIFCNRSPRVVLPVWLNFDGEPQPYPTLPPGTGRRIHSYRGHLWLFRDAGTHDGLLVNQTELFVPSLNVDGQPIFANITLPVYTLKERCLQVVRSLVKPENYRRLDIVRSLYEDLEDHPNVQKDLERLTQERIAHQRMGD

[2] = Anticancer activity against human SNU484 cells assessed as inhibition of cell growth incubated for 72 hrs by cell viability assay; assay type: functional, cell-based; conditions: SNU-484, 72 h
[3] = biological target: T1, von Hippel-Lindau disease tumor suppressor/N(6)-adenosine-methyltransferase catalytic subunit METTL3; experiment: PROTAC activity at VHL/METTL3 in human MOLM-13 cells assessed as induction of METTL3 degradation at 1 uM incubated for 24 hrs by Western blot analysis relative to control; assay type: cell-based
Target sequence in this assay (Q86U44 2-580 partner limits assumed): as the sequence (Q86U44 2-580 partner limits assumed) above
Target sequence in this assay (P40337 whole entry): as the sequence (P40337 whole entry) above

[4] = biological target: T1, von Hippel-Lindau disease tumor suppressor/N(6)-adenosine-methyltransferase catalytic subunit METTL3; experiment: (§1) Binding affinity to N-Luc tagged METTL3 (unknown origin)/Halo-tagged VHL (unknown origin) HA-Ub expressed in HEK293T cells assessed as ternary complex formation by measuring increase ubiquitination level at 1 uM preincubated with epoxomicin for 2.5 hrs followed by compound addition and measured after 6 hrs by NanoBRET assay; assay type: cell-based
Target sequence in this assay (Q86U44 2-580 partner limits assumed): as the sequence (Q86U44 2-580 partner limits assumed) above
Target sequence in this assay (P40337 whole entry): as the sequence (P40337 whole entry) above

MOLM-14 = experiment: Antiproliferative activity against human MOLM-14 cells assessed as cell growth inhibition after 72 hrs by Celltiter Glo luminescent cell viability assay; assay type: functional, cell-based
[5] = biological target: T1, von Hippel-Lindau disease tumor suppressor/N(6)-adenosine-methyltransferase catalytic subunit METTL3; experiment: PROTAC activity at VHL/METTL3 in human MOLM-13 cells assessed as induction of METTL3 degradation at 10 uM preincubated with UZH2 for 2 hrs followed by compound addition and measured after 24 hrs by Western blot analysis; assay type: cell-based
Target sequence in this assay (Q86U44 2-580 partner limits assumed): as the sequence (Q86U44 2-580 partner limits assumed) above
Target sequence in this assay (P40337 whole entry): as the sequence (P40337 whole entry) above

[6] = biological target: T1, von Hippel-Lindau disease tumor suppressor/N(6)-adenosine-methyltransferase catalytic subunit METTL3; experiment: PROTAC activity at VHL/METTL3 in HEK293T cells assessed as induction of METTL3 degradation at 1 uM preincubated with 3MA autophagy inhibitor for 2.5 hrs followed by compound addition and measured after 6 hrs by Western blot analysis; assay type: cell-based
Target sequence in this assay (Q86U44 2-580 partner limits assumed): as the sequence (Q86U44 2-580 partner limits assumed) above
Target sequence in this assay (P40337 whole entry): as the sequence (P40337 whole entry) above

MOLM-13 [7] = experiment: Antiproliferative activity against human MOLM-13 cells assessed as inhibition of cell proliferation measured after 72 hrs by Celltiter Glo luminescent cell viability assay; assay type: functional, cell-based; conditions: MOLM-13, 72 h
[8] = biological target: T1, von Hippel-Lindau disease tumor suppressor/N(6)-adenosine-methyltransferase catalytic subunit METTL3; experiment: as §1, with “origin)” for “origin) HA-Ub”, “in BRET ratio” for “ubiquitination level”, “2” for “2.5”, “4.5” for “6”; assay type: cell-based
Target sequence in this assay (Q86U44 2-580 partner limits assumed): as the sequence (Q86U44 2-580 partner limits assumed) above
Target sequence in this assay (P40337 whole entry): as the sequence (P40337 whole entry) above

[9] = biological target: T1, von Hippel-Lindau disease tumor suppressor/N(6)-adenosine-methyltransferase catalytic subunit METTL3; experiment: PROTAC activity at VHL/METTL3 in HEK293T cells assessed as induction of METTL3 degradation at 1 uM preincubated with epoxomicin for 2.5 hrs followed by compound addition and measured after 6 hrs by Western blot analysis; assay type: cell-based
GES1 [10] = experiment: Anticancer activity against human GES1 cells assessed as inhibition of cell growth incubated for 72 hrs by cell viability assay; assay type: functional, cell-based; conditions: GES1, 72 h
METTL3/METTL14 = METTL3/METTL14 (Homo sapiens, UniProt Q86U44); experiment: Inhibition of METTL3/METTL14 (unknown origin) using Oligo ssRNA as substrate incubated for 20 min by Hotspot RNA methyltransferase assay; assay type: protein-complex assay
HeLa = experiment: Binding affinity to METTL3/GFP-fused BRD4 (unknown origin) expressed in HeLa cells presence of MZ1 by Western blot analysis; assay type: cell-based; conditions: Homo sapiens
[11] = biological target: N6-adenosine-methyltransferase catalytic subunit (Homo sapiens) (UniProt Q86U44); experiment: Induction of thermal stabilization of endogenous METTL3 in human MOLM-13 cells incubated for 1 hrs by cellular thermal shift assay; assay type: cell-based
[12] = biological target: N6-adenosine-methyltransferase catalytic subunit (Homo sapiens) (UniProt Q86U44); experiment: Induction of thermal stabilization of METTL3 in human MOLM-13 cells at 52.4 to 54.8 degreeC incubated for 1 hrs by cellular thermal shift assay; assay type: cell-based
[13] = biological target: T1, von Hippel-Lindau disease tumor suppressor/N(6)-adenosine-methyltransferase catalytic subunit METTL3; experiment: PROTAC activity at VHL/METTL3 expressed in human SNU-484 cells assessed as reduction of cytoplasmic METTL3 protein level at 1 uM incubated for 24 hrs by Western blot analysis; assay type: cell-based
HL-60 = experiment: Antiproliferative activity against human HL-60 cells assessed as cell growth inhibition after 72 hrs by Celltiter Glo luminescent cell viability assay; assay type: functional, cell-based
[14] = biological target: T1, von Hippel-Lindau disease tumor suppressor/N(6)-adenosine-methyltransferase catalytic subunit METTL3; experiment: PROTAC activity at VHL/METTL3 in human MOLM-13 cells assessed as induction of METTL3 degradation at 1 uM by Western blot analysis; assay type: cell-based; conditions: time 4-24 hrs, TDE = time-dependent effect
[15] = biological target: T1, von Hippel-Lindau disease tumor suppressor/N(6)-adenosine-methyltransferase catalytic subunit METTL3; experiment: PROTAC activity at VHL/METTL3 in human MOLM-13 cells assessed as induction of METTL3 degradation at 10 uM by Western blot analysis relative to control; assay type: cell-based
[16] = biological target: T1, von Hippel-Lindau disease tumor suppressor/N(6)-adenosine-methyltransferase catalytic subunit METTL3; experiment: PROTAC activity at VHL/METTL3 in human MOLM-13 cells assessed as induction of METTL3 degradation at 1 uM incubated for 4 hrs by Western blot analysis relative to control; assay type: cell-based
[17] = biological target: T1, von Hippel-Lindau disease tumor suppressor/N(6)-adenosine-methyltransferase catalytic subunit METTL3; experiment: PROTAC activity at VHL/METTL3 expressed in human SNU-484 cells assessed as reduction of METTL3 protein level in nucleus fraction at 1 uM incubated for 24 hrs by Western blot analysis; assay type: cell-based
[18] = biological target: T1, von Hippel-Lindau disease tumor suppressor/N(6)-adenosine-methyltransferase catalytic subunit METTL3; experiment: PROTAC activity at VHL/METTL3 (unknown origin) expressed in HeLa cells assessed as BRD4-eGFP_mCherry level incubated for 4 hrs in presence of MZ1 by flow cytometry analysis; assay type: cell-based
[19] = biological target: T1, von Hippel-Lindau disease tumor suppressor/N(6)-adenosine-methyltransferase catalytic subunit METTL3; experiment: PROTAC activity at VHL/METTL3 in human MOLM-13 cells assessed as induction of METTL3 degradation at 10 uM preincubated with VH032 for 2 hrs followed by compound addition and measured after 24 hrs by Western blot analysis; assay type: cell-based
MOLM-13 [20] = experiment: Downregulation of C-Myc protein level expression in human MOLM-13 cells incubated for 24 hrs by Western blot analysis; assay type: functional, cell-based
[21] = biological target: T1, von Hippel-Lindau disease tumor suppressor/N(6)-adenosine-methyltransferase catalytic subunit METTL3; experiment: PROTAC activity at VHL/METTL3 in HEK293T cells assessed as induction of METTL3 degradation at 1 uM preincubated with MG132 for 2.5 hrs followed by compound addition and measured after 6 hrs by Western blot analysis; assay type: cell-based
Gastric cancer organoid [22] = experiment: Anti-proliferative activity against patient derived GA215T organoids assessed as suppression of tumor growth incubated for 5 days by Celltiter-glo viability assay; assay type: functional, tissue-based; conditions: Homo sapiens; Neoplasm; time 5.0 day
Gastric cancer organoid [23] = experiment: Anti-proliferative activity against patient derived GA352T organoids assessed as suppression of tumor growth incubated for 5 days by Celltiter-glo viability assay; assay type: functional, tissue-based; conditions: Homo sapiens; Neoplasm; time 5.0 day
[24] = biological target: T1, von Hippel-Lindau disease tumor suppressor/N(6)-adenosine-methyltransferase catalytic subunit METTL3; experiment: PROTAC activity at VHL/METTL3 expressed in human AGS cells assessed as reduction of cytoplasmic METTL3 protein level at 1 uM incubated for 24 hrs by Western blot analysis; assay type: cell-based
[25] = biological target: T1, von Hippel-Lindau disease tumor suppressor/N(6)-adenosine-methyltransferase catalytic subunit METTL3; experiment: PROTAC activity at VHL/METTL3 in human MOLM-13 cells assessed as induction of METTL3 degradation at 1 uM by Western blot analysis relative to control; assay type: cell-based
[26] = biological target: T1, von Hippel-Lindau disease tumor suppressor/N(6)-adenosine-methyltransferase catalytic subunit METTL3; experiment: PROTAC activity at VHL/METTL3 expressed in human AGS cells assessed as reduction of METTL3 protein level in nucleus fraction at 1 uM incubated for 24 hrs by Western blot analysis; assay type: cell-based
[27] = biological target: T1, von Hippel-Lindau disease tumor suppressor/N(6)-adenosine-methyltransferase catalytic subunit METTL3; experiment: PROTAC activity at VHL/METTL3 in human MOLM-13 cells assessed as induction of METTL3 degradation incubated for 24 hrs by Western blot analysis; assay type: cell-based
[28] = biological target: T1, von Hippel-Lindau disease tumor suppressor/N(6)-adenosine-methyltransferase catalytic subunit METTL3; experiment: PROTAC activity at VHL/METTL3 in human MOLM-13 cells assessed as induction of METTL3 degradation incubated for 4 to 24 hrs by Western blot analysis relative to control; assay type: cell-based; conditions: time 4-24 hrs
GES1 [29] = experiment: Cytotoxicity against human GES1 cells assessed as reduction in cell viability incubated for 24 hrs; assay type: toxicity, cell-based; conditions: ges1, 24 h
AGS = experiment: Anticancer activity against human AGS cells assessed as inhibition of cell growth incubated for 72 hrs by cell viability assay; assay type: functional, cell-based
MOLM-13 [30] = experiment: Induction of apoptosis in human MOLM-13 cells at 5 uM incubated for 48 hrs by Annexin V/PI staining based flow cytometry analysis; assay type: functional, cell-based
[31] = biological target: T1, von Hippel-Lindau disease tumor suppressor/N(6)-adenosine-methyltransferase catalytic subunit METTL3; experiment: as §1, with “origin)” for “origin) HA-Ub”, “decrease in BRET ratio” for “increase ubiquitination level”, “30” for “1”, “2” for “2.5”, “4.5” for “6”; assay type: cell-based
[32] = biological target: T1, von Hippel-Lindau disease tumor suppressor/N(6)-adenosine-methyltransferase catalytic subunit METTL3; experiment: PROTAC activity at VHL/METTL3 in HEK293T cells assessed as induction of METTL3 degradation at 1 uM preincubated with MLN4924 for 2.5 hrs followed by compound addition and measured after 6 hrs by Western blot analysis; assay type: cell-based
[33] = biological target: T2, Protein cereblon/N(6)-adenosine-methyltransferase catalytic subunit METTL3 (Homo sapiens) (UniProt Q96SW2+Q86U44); experiment: PROTAC activity at CRBN/METTL3 in human MOLM-13 cells assessed as induction of METTL3 degradation at 1 uM by Western blot analysis relative to control; assay type: cell-based
[34] = biological target: T2, Protein cereblon/N(6)-adenosine-methyltransferase catalytic subunit METTL3 (Homo sapiens); experiment: PROTAC activity at CRBN/METTL3 in human MOLM-13 cells assessed as induction of METTL3 degradation at 10 uM by Western blot analysis relative to control; assay type: cell-based
[35] = biological target: T1, von Hippel-Lindau disease tumor suppressor/N(6)-adenosine-methyltransferase catalytic subunit METTL3; experiment: PROTAC activity at VHL/METTL3 (unknown origin) expressed in HeLa cells assessed as reduction in BRD4-eGFP_mCherry level incubated for 4 hrs in presence of MZ1 by flow cytometry analysis; assay type: cell-based
[36] = biological target: T1, von Hippel-Lindau disease tumor suppressor/N(6)-adenosine-methyltransferase catalytic subunit METTL3; experiment: PROTAC activity at VHL/METTL3 in human MOLM-13 cells assessed as reduction in METTL3 level at 1 uM incubated for 24 hrs by Western blot analysis; assay type: cell-based

Chain of N6-adenosine-methyltransferase catalytic subunit (Homo sapiens) (Q86U44 whole entry): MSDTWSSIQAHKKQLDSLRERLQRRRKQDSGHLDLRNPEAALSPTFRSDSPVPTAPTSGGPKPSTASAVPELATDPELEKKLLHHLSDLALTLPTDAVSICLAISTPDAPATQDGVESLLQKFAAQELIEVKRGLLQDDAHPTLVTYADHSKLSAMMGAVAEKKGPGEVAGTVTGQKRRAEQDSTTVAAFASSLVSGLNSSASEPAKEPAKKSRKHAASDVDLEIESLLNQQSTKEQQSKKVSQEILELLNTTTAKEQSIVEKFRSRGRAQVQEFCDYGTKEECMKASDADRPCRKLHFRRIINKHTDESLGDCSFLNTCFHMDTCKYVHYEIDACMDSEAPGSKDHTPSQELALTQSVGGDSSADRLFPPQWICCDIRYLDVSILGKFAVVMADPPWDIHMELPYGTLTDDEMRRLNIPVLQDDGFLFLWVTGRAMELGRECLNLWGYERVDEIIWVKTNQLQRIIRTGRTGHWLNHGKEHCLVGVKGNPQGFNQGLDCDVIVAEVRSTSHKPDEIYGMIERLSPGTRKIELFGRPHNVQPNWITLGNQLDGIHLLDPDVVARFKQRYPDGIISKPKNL
T2 sequence (Q86U44 whole entry, looked up): as the sequence (Q86U44 whole entry) above
T2 sequence (Q96SW2 whole entry, looked up): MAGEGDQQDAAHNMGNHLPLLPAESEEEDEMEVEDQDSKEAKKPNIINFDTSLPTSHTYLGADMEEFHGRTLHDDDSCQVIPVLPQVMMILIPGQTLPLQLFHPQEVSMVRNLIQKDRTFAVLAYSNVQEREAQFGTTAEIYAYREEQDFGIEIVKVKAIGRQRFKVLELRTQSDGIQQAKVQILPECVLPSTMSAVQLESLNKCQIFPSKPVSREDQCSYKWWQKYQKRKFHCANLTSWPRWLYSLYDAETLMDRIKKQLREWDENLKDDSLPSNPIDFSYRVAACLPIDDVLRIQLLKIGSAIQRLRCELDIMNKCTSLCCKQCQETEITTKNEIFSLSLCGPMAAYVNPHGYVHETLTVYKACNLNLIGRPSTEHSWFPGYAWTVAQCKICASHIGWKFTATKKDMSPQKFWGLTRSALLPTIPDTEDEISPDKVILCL
Chain of METTL3/METTL14 (Q86U44 whole entry, the tested form may be a part): as the sequence (Q86U44 whole entry) above
Chain of METTL3/METTL14 (Q9HCE5 whole entry, further chain, the tested form may be a part): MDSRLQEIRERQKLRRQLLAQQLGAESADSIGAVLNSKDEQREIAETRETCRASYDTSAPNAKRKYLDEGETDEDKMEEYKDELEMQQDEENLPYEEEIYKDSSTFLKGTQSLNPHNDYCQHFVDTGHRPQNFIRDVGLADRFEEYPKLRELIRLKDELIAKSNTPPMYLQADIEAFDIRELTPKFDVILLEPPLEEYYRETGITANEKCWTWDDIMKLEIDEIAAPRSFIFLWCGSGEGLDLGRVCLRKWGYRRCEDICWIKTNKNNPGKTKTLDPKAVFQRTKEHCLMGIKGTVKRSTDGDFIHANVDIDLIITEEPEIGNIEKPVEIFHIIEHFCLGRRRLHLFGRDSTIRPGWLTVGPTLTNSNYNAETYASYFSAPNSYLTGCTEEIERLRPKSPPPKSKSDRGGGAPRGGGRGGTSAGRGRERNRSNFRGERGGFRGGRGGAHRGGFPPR

Compound: Cc1ncsc1-c1ccc(CNC(=O)[C@@H]2C[C@@H](O)CN2C(=O)[C@@H](NC(=O)CCCCCCCNc2cc(N3CCC4(CC3)CN(c3cc(F)c(CN5CCC(C)(C)CC5)cc3F)CC(=O)N4)ncn2)C(C)(C)C)cc1
- Activity [1]: Active
- IC50 [2]: 3000 nM
- Activity [3]: 90%
- Activity [4]: Active
- Activity (MOLM-14): Active
- Activity [5]: inactive
- Activity [6]: Active
- IC50 (MOLM-13 [7]): 1040 nM
- Activity [8]: Active
- Activity [9]: inactive
- IC50 (GES1 [10]): > 50000 nM
- IC50 (METTL3/METTL14): 341 nM
- Activity (HeLa): Active
- Activity [11]: Dose-Dependent Effect
- Activity [12]: Active
- Activity [13]: Active
- Activity (HL-60): Active
- Activity [14]: Tde
- Activity [15]: 50%
- Activity [16]: > 50%
- Activity [17]: Active
- Activity [18]: inactive
- Activity [19]: Active
- Activity (MOLM-13 [20]): Dose-Dependent Effect
- Activity [21]: inactive
- Activity (Gastric cancer organoid [22]): Active
- Activity (Gastric cancer organoid [23]): Active
- Activity [24]: Active
- Activity [25]: 84%
- Activity [26]: Active
- Activity [27]: Dose-Dependent Effect
- DC50 [27]: 220 nM
- Activity [28]: Dose-Dependent Effect
- Activity (GES1 [29]): Toxic
- IC50 (AGS): 1480 nM
- Activity (MOLM-13 [30]): Active
- Activity [31]: inactive
- Activity [32]: inactive

Compound: CC1(C)CCN(Cc2cc(F)c(N3CC(=O)NC4(CCN(c5cc(NCCCCCCCC(=O)N6CCN(c7ccc8c(c7)C(=O)N(C7CCC(=O)NC7=O)C8=O)CC6)ncn5)CC4)C3)cc2F)CC1 (stereo unspecified)
- Activity [33]: 33%
- Activity [34]: 29%

Compound: Cc1ncsc1-c1ccc(CNC(=O)[C@@H]2C[C@H](O)CN2C(=O)[C@@H](NC(=O)CCCCCCCNc2cc(N3CCC4(CC3)CN(c3cc(F)c(CN5CCC(C)(C)CC5)cc3F)CC(=O)N4)ncn2)C(C)(C)C)cc1
- Activity [35]: Active
- Activity (HeLa): Active
- Activity [12]: Active
- Activity [36]: inactive

Compound: Cc1ncsc1-c1ccc(CNC(=O)[C@@H]2C[C@@H](O)CN2C(=O)[C@@H](NC(=O)CCCCCCCCCCNc2cc(N3CCC4(CC3)CN(c3cc(F)c(CN5CCC(C)(C)CC5)cc3F)CC(=O)N4)ncn2)C(C)(C)C)cc1
- Activity [15]: 55%
- Activity [25]: 34%
